Data taken from US20240158446A1, “CYCLIC COMPOUND HAVING SELECTIVE INHIBITORY ACTION ON KRAS OVER HRAS AND NRAS” (CHUGAI SEIYAKU KABUSHIKI KAISHA, priority 2021, published 2024).
Read-outs that look alike come from different tables or passages of the source. Where a SMILES comes first, the peptide text is derived from it. Bridges are numbered along the chain shown (N, C = ends). [ ]: non-standard residue; d: D form. The star is where a group is joined. hPhe(3-Cl-4-CF3) = N[C@@H](CCc1ccc(C(F)(F)F)c(Cl)c1)C(=O)O; NPrPhe(4-CF3) = CCCN[C@@H](Cc1ccc(C(F)(F)F)cc1)C(=O)O; NEtPhe(4-Me) = CCN[C@@H](Cc1ccc(C)cc1)C(=O)O; NMeGly(cPent) = CN[C@H](C(=O)O)C1CCCC1; Hyp = O=C(O)[C@@H]1C[C@@H](O)CN1; NMeD = CN[C@@H](CC(=O)O)C(=O)O; NMeL = CN[C@@H](CC(C)C)C(=O)O; Morpholide = C1CN(*)CCO1; Ac5c = NC1(C(=O)O)CCCC1; NEtG = CCNCC(=O)O; Sar = CNCC(=O)O

Key:
[1] = biological target: GDP-bound KRAS wild-type protein (Homo sapiens, UniProt P01116); test: Binding to KRAS by surface plasmon resonance (SPR), Single Cycle Kinetics; settings: GDP-bound KRAS wild-type protein, read-out: KRAS KD
[2] = biological target: GDP-bound NRAS wild-type protein (Homo sapiens, UniProt P01111); test: Binding to NRAS by surface plasmon resonance (SPR), Single Cycle Kinetics; settings: for NRAS/KRAS (ratio of KD value for NRAS to KD value for KRAS) / NRAS/KRAS (ratio of KD value with respect to NRAS to KD value with respect to KRAS): SPR, GDP-bound NRAS wild-type protein vs GDP-bound KRAS wild-type protein; for NRAS/KRAS (ratio of KD value with respect to GDP-bound NRAS wild-type protein to KD value with respect to KRAS): SPR KD ratio NRAS/KRAS, class symbols
[3] = biological target: GDP-bound HRAS wild-type protein (Homo sapiens, UniProt P01112); test: Binding to HRAS by surface plasmon resonance (SPR), Single Cycle Kinetics; settings: for HRAS/KRAS (ratio of KD value for HRAS to KD value for KRAS) / HRAS/KRAS (ratio of KD value with respect to HRAS to KD value with respect to KRAS): SPR, GDP-bound HRAS wild-type protein vs GDP-bound KRAS wild-type protein; for HRAS/KRAS (ratio of KD value with respect to GDP-bound HRAS wild-type protein to KD value with respect to KRAS): SPR KD ratio HRAS/KRAS, class symbols
[4] = SPR Single Cycle Kinetics, 1:1 binding model

GDP-bound KRAS wild-type protein, sequence (P01116 whole entry): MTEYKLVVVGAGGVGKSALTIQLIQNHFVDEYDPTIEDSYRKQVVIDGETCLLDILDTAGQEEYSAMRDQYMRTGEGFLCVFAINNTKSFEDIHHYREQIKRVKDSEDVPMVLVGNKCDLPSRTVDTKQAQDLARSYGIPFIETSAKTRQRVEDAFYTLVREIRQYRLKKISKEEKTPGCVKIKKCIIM
GDP-bound HRAS wild-type protein, sequence (P01112 whole entry): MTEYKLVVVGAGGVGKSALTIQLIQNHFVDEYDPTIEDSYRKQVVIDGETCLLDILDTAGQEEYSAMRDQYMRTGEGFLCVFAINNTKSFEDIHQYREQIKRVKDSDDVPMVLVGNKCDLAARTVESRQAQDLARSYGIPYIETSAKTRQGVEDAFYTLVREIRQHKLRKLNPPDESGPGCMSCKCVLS
GDP-bound NRAS wild-type protein, sequence (P01111 whole entry): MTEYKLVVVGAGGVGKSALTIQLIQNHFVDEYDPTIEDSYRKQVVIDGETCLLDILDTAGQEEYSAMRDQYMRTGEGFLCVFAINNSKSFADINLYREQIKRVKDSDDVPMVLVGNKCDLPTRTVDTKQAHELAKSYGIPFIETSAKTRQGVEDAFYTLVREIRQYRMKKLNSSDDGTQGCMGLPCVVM

Kd ([1]; SPR, Single Cycle Kinetics)	Kd [1, 4]	SMILES	NRAS/KRAS (ratio of KD value for NRAS to KD value for KRAS) [2]	HRAS/KRAS (ratio of KD value for HRAS to KD value for KRAS) [3]	NRAS/KRAS (ratio of KD value with respect to GDP-bound NRAS wild-type protein to KD value with respect to KRAS) [2]	HRAS/KRAS (ratio of KD value with respect to GDP-bound HRAS wild-type protein to KD value with respect to KRAS) [3]	NRAS/KRAS (ratio of KD value with respect to NRAS to KD value with respect to KRAS) [2]	HRAS/KRAS (ratio of KD value with respect to HRAS to KD value with respect to KRAS) [3]
0.31 nM	–	CCC[C@H]1C(=O)N[C@@H](C2CCCC2)C(=O)N(C)CC(=O)N(C)[C@H]2C/C=C\CCN(C2=O)[C@@H](Cc2ccc(C(F)(F)F)cc2)C(=O)N(C)CC(=O)N[C@@H](CCc2ccc(C(F)(F)F)c(Cl)c2)C(=O)N2CC3(CC3)C[C@H]2C(=O)NC2(CC(C)(C)C2)C(=O)N(C)[C@@H](CC(C)(C)C)C(=O)N(C)[C@H](C(=O)N(C)C)CC(=O)N1C [PP2981]	AA (a compound having 20 or more is denoted as AA)	A (a compound having 10 or more and less than 20 is denoted as A)	–	–	–	–
–	1.3 nM	CCO[C@@H]1C[C@H]2C(=O)NC3(CCC3)C(=O)N(C)[C@@H](C3CCCC3)C(=O)N(C)[C@H](C(=O)N(C)C)CC(=O)N(C)[C@@H](CC3CCCC3)C(=O)N[C@@H]([C@@H](C)CC)C(=O)N(C)CC(=O)N(C)[C@H]3C/C=C\CCN(C3=O)[C@@H](Cc3ccc(C)cc3)C(=O)N(C)CC(=O)N[C@@H](CCc3cc(C)c(C(F)F)c(Cl)c3)C(=O)N2C1 [PP2677]	–	–	A (a compound having 10 or more and less than 20 is denoted as A)	A (a compound having 10 or more and less than 20 is denoted as A)	–	–
–	2 nM	CCC[C@H]1C(=O)N[C@@H]([C@@H](C)CC)C(=O)N(C)CC(=O)N(C)[C@H]2C/C=C\CCN(C2=O)[C@@H](Cc2ccc(C(F)(F)F)cc2)C(=O)N(C)CC(=O)N[C@@H](CCc2ccc(C(F)(F)F)c(OC)c2)C(=O)N2CCCC[C@H]2C(=O)NC2(CC(C)(C)C2)C(=O)N(C)[C@@H](C(CC)CC)C(=O)N(C)[C@H](C(=O)N(C)C)CC(=O)N1C [PP2934]	–	–	AA (a compound having 20 or more is denoted as AA)	A (a compound having 10 or more and less than 20 is denoted as A)	–	–
0.16 nM	–	C#CCN1CC(=O)N(C)[C@H]2C/C=C\CCN(C2=O)[C@@H](Cc2ccc(C)cc2)C(=O)N(C)CC(=O)N[C@@H](CCc2cc(F)c(C(F)(F)F)c(F)c2)C(=O)N2C[C@H](OCC)C[C@H]2C(=O)NC2(CC(C)(C)C2)C(=O)N(C)[C@@H](C2CCCC2)C(=O)N(C)[C@H](C(=O)N(C)C)CC(=O)N(C)[C@@H](CC(C)C)C(=O)N[C@@H]([C@@H](C)CC)C1=O [PP2052]	A (a compound having 10 or more and less than 20 is denoted as A)	A (a compound having 10 or more and less than 20 is denoted as A)	–	–	–	–
–	0.19 nM	CCO[C@@H]1C[C@H]2C(=O)NC3(CC(C)(C)C3)C(=O)N(C)[C@@H](C3CCCC3)C(=O)N(C)[C@H](C(=O)N(C)CC)CC(=O)N(C)[C@@H](COC)C(=O)N[C@@H]([C@@H](C)CC)C(=O)N(C)CC(=O)N(C)[C@H]3C/C=C\CCN(C3=O)[C@@H](Cc3ccc(C(F)(F)F)cc3)C(=O)N(C)CC(=O)N[C@@H](CCc3ccc(Cl)c(Cl)c3)C(=O)N2C1 [PP2835]	–	–	A (a compound having 10 or more and less than 20 is denoted as A)	A (a compound having 10 or more and less than 20 is denoted as A)	–	–
–	2.4 nM	CC[C@H](C)[C@@H]1NC(=O)[C@H](CC(C)C)N(C)C(=O)C[C@@H](C(=O)N2CCOCC2)N(C)C(=O)[C@H](C2CCCC2)N(C)C(=O)C2(CCCC2)NC(=O)[C@@H]2CCCN2C(=O)[C@H](CCc2ccc(C(F)(F)F)c(Cl)c2)NC(=O)CN(CC)C(=O)[C@H](Cc2ccc(C)cc2)N(CC)C(=O)CN(C)C(=O)CN(C)C1=O [PP0028] ([NMeL]I[Sar][Sar][NEtPhe(4-Me)][NEtG][hPhe(3-Cl-4-CF3)]P[Ac5c][NMeGly(cPent)][NMeD]-Morpholide; lactam N-11)	C (A compound having a KD ratio of 0.1 or more and less than 3 is denoted as C)	C (A compound having a KD ratio of 0.1 or more and less than 3 is denoted as C)	–	–	–	–
–	0.033 nM	CCCN1C(=O)CN(C)C(=O)CNC(=O)[C@H]([C@@H](C)CC)NC(=O)[C@H](CC(C)C)N(C)C(=O)C[C@@H](C(=O)N(C)C)N(C)C(=O)[C@H](C2CCCC2)N(C)C(=O)C2(CCCC2)NC(=O)[C@@H]2C[C@@H](OCC)CN2C(=O)[C@H](CCc2ccc(C(F)(F)F)c(Cl)c2)NC(=O)CN(C)C(=O)[C@@H]1Cc1ccc(C(F)(F)F)cc1 [PP0421] ([NMeL]IG[Sar][NPrPhe(4-CF3)][Sar][hPhe(3-Cl-4-CF3)][Hyp](Et)[Ac5c][NMeGly(cPent)][NMeD]-NMe2; lactam N-11)	–	–	–	–	B (a compound having 3 or more and less than 10 is denoted as B)	C (A compound having a KD ratio of 0.1 or more and less than 3 is denoted as C)
1.4 nM	–	CCO[C@@H]1C[C@H]2C(=O)NC3(CC(C)(C)C3)C(=O)N(C)[C@@H](C(CC)CC)C(=O)N(C)[C@H](C(=O)N(C)C)CC(=O)N(C)[C@@H](C(C)C)C(=O)N[C@@H]([C@@H](C)CC)C(=O)N(C)CC(=O)N(C)[C@H]3C/C=C\CCN(C3=O)[C@@H](Cc3ccc(C(F)(F)F)cc3)C(=O)N(C)CC(=O)N[C@@H](CCc3ccc(Cl)c(Cl)c3)C(=O)N2C1 [PP2181]	AA (a compound having 20 or more is denoted as AA)	A (a compound having 10 or more and less than 20 is denoted as A)	–	–	–	–
0.57 nM	–	CCO[C@@H]1C[C@H]2C(=O)NC3(CCC3)C(=O)N(C)[C@@H](C3CCCC3)C(=O)N(C)[C@H](C(=O)N3CCOCC3)CC(=O)N(C)[C@@H](CC)C(=O)N[C@@H]([C@@H](C)CC)C(=O)N(C)CC(=O)N(C)[C@H]3CC(C)=CCN(C3=O)[C@@H](Cc3ccc(C(F)(F)F)cc3)C(=O)N(C)CC(=O)N[C@@H](CCc3cc(F)c(C(F)(F)F)c(F)c3)C(=O)N2C1 [PP1041]	C (A compound having a KD ratio of 0.1 or more and less than 3 is denoted as C)	C (A compound having a KD ratio of 0.1 or more and less than 3 is denoted as C)	–	–	–	–
–	0.48 nM	CCCN1C(=O)CN(C)C(=O)CN(CC)C(=O)[C@H]([C@@H](C)CC)NC(=O)[C@H](CC(C)C)N(C)C(=O)C[C@@H](C(=O)N(C)C)NC(=O)[C@H](C2CCCC2)N(C)C(=O)C2(CCCC2)NC(=O)[C@@H]2C[C@@H](OCC)CN2C(=O)[C@H](CCc2ccc(C(F)(F)F)c(Cl)c2)NC(=O)CN(C)C(=O)[C@@H]1Cc1ccc(C(F)(F)F)cc1 [PP0371] ([NMeL]I[NEtG][Sar][NPrPhe(4-CF3)][Sar][hPhe(3-Cl-4-CF3)][Hyp](Et)[Ac5c][NMeGly(cPent)]D-NMe2; lactam N-11)	B (a compound having 3 or more and less than 10 is denoted as B)	C (A compound having a KD ratio of 0.1 or more and less than 3 is denoted as C)	–	–	–	–
–	0.019 nM	CC[C@H](C)[C@@H]1NC(=O)[C@H](CC(C)C)N(C)C(=O)C[C@@H](C(=O)N(C)C)N(C)C(=O)[C@H](C2CCCC2)N(C)C(=O)C2(CCCC2)NC(=O)[C@@H]2CC(F)(F)CN2C(=O)[C@H](CCc2cc(F)c(C(F)(F)F)c(F)c2)NC(=O)CN(C)C(=O)[C@H](Cc2ccc(C(F)(F)F)cc2)N2CCCC[C@@H](C2=O)N(C)C(=O)CN(C)C1=O [PP0576]	–	–	–	–	C (A compound having a KD ratio of 0.1 or more and less than 3 is denoted as C)	B (a compound having 3 or more and less than 10 is denoted as B)
3.6 nM	–	CCC[C@H]1C(=O)N[C@@H]([C@@H](C)CC)C(=O)N2CCC[C@H]2C(=O)N(C)[C@H]2C/C=C\CCN(C2=O)[C@@H](CC2CCCCC2)C(=O)N(C)CC(=O)N[C@@H](CCc2ccc(C(F)(F)F)c(OC)c2)C(=O)N2C[C@H](OCC)C[C@H]2C(=O)N(C)C2(CCC2)C(=O)N(C)[C@@H](C(CC)CC)C(=O)N(C)[C@H](C(=O)N(C)C)CC(=O)N1C [PP2341]	A (a compound having 10 or more and less than 20 is denoted as A)	A (a compound having 10 or more and less than 20 is denoted as A)	–	–	–	–
–	0.43 nM	CCCC[C@H]1C(=O)N[C@@H]([C@@H](C)CC)C(=O)N(C)CC(=O)N(C)[C@H]2C/C=C\CCN(C2=O)[C@@H](Cc2ccc(C)cc2)C(=O)N(C)CC(=O)N[C@@H](CCc2cc(F)c(C(F)(F)F)c(F)c2)C(=O)N2C[C@H](OCC)C[C@H]2C(=O)NC2(CC(C)(C)C2)C(=O)N(C)[C@@H](C2CCCC2)C(=O)N(C)[C@H](C(=O)N(C)CC)CC(=O)N1C [PP2808]	–	–	B (a compound having 3 or more and less than 10 is denoted as B)	B (a compound having 3 or more and less than 10 is denoted as B)	–	–
0.22 nM	–	CC[C@H](C)[C@@H]1NC(=O)[C@H](C(C)C)N(C)C(=O)C[C@@H](C(=O)N(C)CC)N(C)C(=O)[C@H](C2CCCC2)N(C)C(=O)C2(CCC2)NC(=O)[C@@H]2C[C@H](C)CN2C(=O)[C@H](CCc2ccc(C(F)(F)F)c(OC)c2)NC(=O)CN(C)C(=O)[C@H](Cc2ccc(C(F)(F)F)cc2)N2CC/C=C\C[C@@H](C2=O)N(C)C(=O)CN(C)C1=O [PP2065]	A (a compound having 10 or more and less than 20 is denoted as A)	B (a compound having 3 or more and less than 10 is denoted as B)	–	–	–	–
